# Where a name gives a salt, the structure may show the parent alone.
# Columns and labels:
# [1] = system: prostate 22RV1 cancer cells; experiment: Matrigel invasion assay; type: cell-based, human; details: 50 μM
# Description: FIG. 15: Compound 2 inhibits the proliferation, migration and invasion of cancer cells with low Lamin A/C expression. […] C) Quantification of transwell migration assays and matrigel invasion assays from the indicated low expressing cancer cell lines after treatment with 50 μM of compound 2.
# [2] = biological target: T1, NAT10 purified from HEK293 cells (Homo sapiens, UniProt Q9H0A0); experiment: Circular dichroism spectroscopy of purified NAT10; type: binding; details: titration, 10 μM FLAG-NAT10, concentration-dependent
# T1 construct: made in house; host or cells: HEK293 (transient transfection, anti-FLAG immunopurification, elution with triple-Flag peptide)
# T1 sequence (Q9H0A0 1-1025): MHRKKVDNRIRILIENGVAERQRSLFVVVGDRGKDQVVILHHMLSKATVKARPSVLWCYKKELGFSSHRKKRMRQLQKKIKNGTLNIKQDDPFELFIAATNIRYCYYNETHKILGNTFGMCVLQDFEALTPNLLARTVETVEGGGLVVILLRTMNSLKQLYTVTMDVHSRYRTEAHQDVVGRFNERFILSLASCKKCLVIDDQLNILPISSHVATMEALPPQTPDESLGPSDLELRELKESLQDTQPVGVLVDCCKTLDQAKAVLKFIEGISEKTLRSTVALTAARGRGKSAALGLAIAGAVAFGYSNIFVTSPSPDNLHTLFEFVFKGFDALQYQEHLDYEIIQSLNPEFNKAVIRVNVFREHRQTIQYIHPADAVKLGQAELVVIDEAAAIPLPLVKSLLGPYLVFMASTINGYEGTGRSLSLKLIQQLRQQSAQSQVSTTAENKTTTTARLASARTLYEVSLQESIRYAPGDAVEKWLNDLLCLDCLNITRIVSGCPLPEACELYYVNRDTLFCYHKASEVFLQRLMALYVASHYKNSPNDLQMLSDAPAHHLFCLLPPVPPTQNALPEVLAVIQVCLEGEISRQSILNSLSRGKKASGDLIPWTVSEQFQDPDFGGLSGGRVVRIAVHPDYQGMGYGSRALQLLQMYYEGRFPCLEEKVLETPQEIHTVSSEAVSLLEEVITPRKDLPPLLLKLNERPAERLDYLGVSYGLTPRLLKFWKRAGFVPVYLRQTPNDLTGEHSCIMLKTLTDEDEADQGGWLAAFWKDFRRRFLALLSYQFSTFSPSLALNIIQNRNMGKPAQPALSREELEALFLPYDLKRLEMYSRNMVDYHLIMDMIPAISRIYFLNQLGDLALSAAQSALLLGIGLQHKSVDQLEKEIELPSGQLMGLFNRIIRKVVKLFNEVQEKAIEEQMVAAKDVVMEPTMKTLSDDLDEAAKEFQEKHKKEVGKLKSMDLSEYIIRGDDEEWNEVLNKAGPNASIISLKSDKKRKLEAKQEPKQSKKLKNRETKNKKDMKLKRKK
# Description: HEK293 cells were transiently transfected with NAT10 constructs and harvested after 48 hours in PBS. Cells were lysed for 5 minutes at room temperature in IP lysis buffer (20 mM Tris pH 7.5, 40 mM NaCl, 2 mM MgCl2, 0.5% NP-40) freshly supplemented with 50 U/ml benzonase and EDTA-free protease inhibitor cocktail (Roche). After this initial lysis step, NaCl concentration was adjusted to 450 mM and samples were incubated at 4° C. with rotation. Lysates were clarified by centrifugation (13,200 rpm, 20 minutes at 4° C.), and after recovery NaCl concentration was equilibrated to 150 mM. Lysates were used for immunoprecipitation reaction in IP buffer (25 mM Tris pH 7.5, 150 mM NaCl, 1.5 mM DTT, 10% glycerol, 0.5% NP-40) supplemented with protease inhibitors. Target proteins were captured with anti-FLAG antibody (M2, Sigma-Aldrich) coupled to protein A/G-Dynabeads (Life Sciences). Complexes were washed with IP buffer containing incrementally increasing amounts of NaCl (250 mM, 500 mM, and 1M). Following this, the immuno-complexes were washed in TBS containing gradually decreasing amounts on NaCl (1M, 500 mM, 250 mM, and 150 mM). […]
# CD experiments were performed using a Chirascan Circular Dichroism Spectrophotometer (Applied Photophysics, UK). […] CD scans were recorded at 25° C. over the wavelength range of 180 to 350 nm with a 1 second response time, 1 nm pitch and 1.5-nm bandwidth. […]
structure (smiles),measurement,setting,value
"Clc1ccc(-c2csc(NN=C3CCCC3)n2)cc1 [Compound 2, 4-(4-Chlorophenyl)-2-(2-cyclopentylidenehydrazinyl)thiazole Hydrochloride Salt]",matrigel invasion of 22RV1 cells,[1],no invasion upon treatment
same,"NAT10 conformation, absolute molar ellipticity at 210 nm",[2],clear increase in the absolute molar ellipticity

# — US9809562B2, “NAT10 modulators for treating or preventing laminopathies, aging and cancer” (CAMBRIDGE ENTERPRISE LIMITED, priority 2014, dated 2017)
